# Biological target: T1, CXCR2 (Homo sapiens, UniProt P25025)
# T1 sequence (P25025 1-360): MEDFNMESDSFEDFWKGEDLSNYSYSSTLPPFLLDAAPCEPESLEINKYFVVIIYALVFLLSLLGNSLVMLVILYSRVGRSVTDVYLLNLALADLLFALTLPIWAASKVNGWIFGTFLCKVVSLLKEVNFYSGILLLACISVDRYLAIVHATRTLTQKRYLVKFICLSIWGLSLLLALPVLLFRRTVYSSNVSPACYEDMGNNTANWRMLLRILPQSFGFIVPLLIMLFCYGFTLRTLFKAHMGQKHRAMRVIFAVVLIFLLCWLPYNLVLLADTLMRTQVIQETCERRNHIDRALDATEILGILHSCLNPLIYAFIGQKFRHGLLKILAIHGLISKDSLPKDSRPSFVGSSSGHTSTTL
# Assay: BRET Gi coupling, CXCR2/Rluc8 and Venus/mGsi without HA-AT1R, HEK293FT cells
# Assay type: cell-based
# Settings: 100 nM CXCL8, 1 μM AngII, FIG. 1A
# Description: HEK293FT cells were seeded in 6-well plates at a density of approximately 700,000 cells/well and maintained at 37° C., 5% CO2 in Complete Media (DMEM containing 0.3 mg/ml glutamine, 100 IU/ml penicillin and 100 μg/ml streptomycin (Gibco/Thermo Fisher)) supplemented with 10% fetal calf serum (FCS; Bovogen). Transient transfections were carried out 24 h after seeding using FuGene6™ (Promega) according to manufacturer instructions. 24 h post-transfection, cells were washed with PBS, detached using 0.05% trypsin/0.53 mM EDTA, resuspended in HEPES-buffered phenol red free Complete Media containing 5% FCS and added to a poly-L-lysine-coated white 96-well microplate (Greiner Bio-One). 48 h post-transfection, bioluminescence resonance energy transfer (BRET) assays were carried out following pre-incubation of cells with EnduRen™ (Promega) at a final concentration of 30 μM, at 37° C., 5% CO2 for 2 h. BRET measurements were taken at 37° C. using the LUMlstar™ or CLARIOstar™ (BMG Labtech). Filtered light emissions were measured for 1 s in each of the ‘donor wavelength window’ (460-490 nm for LUMlstar™ or 410-490 nm for CLARIOstar™) and ‘acceptor wavelength window’ (520-550 nm for LUMlstar™ or 520-620 nm for CLARIOstar™).
# The BRET signal observed between interacting proteins is normalized by subtracting the background BRET ratio. […]
substance,measurement,value
Angiotensin II [AngII],"ligand-induced BRET signal, CXCR2/Rluc8 and Venus/mGsi",did not result in an increase

# Source: patent US20240009191A1, “METHOD AND COMPOSITION FOR THE TREATMENT OF DISEASE” (DIMERIX BIOSCIENCE PTY LTD, priority 2019, published 2024)
